The values below come from patent US9944654B2, “Nargenicin compounds and uses thereof as antibacterial agents” (priority 2014, dated 2018).

The structures appear in SMILES notation. In brackets after ≈: the same amount, converted by molar mass. Where two headings read alike, the source gives them in different places.

The subject of test [1] is Escherichia coli MB5747 (LS 883, tolC). The test can be described thus: microbe, parasite or virus in culture. Particulars: Escherichia coli, read-out: E. coli LS883 tolC (MIC), MHII broth; * = some reduction of growth versus control at […]. The test is classed as cell-based.
Test [2] relates to Pseudomonas aeruginosa MB5890 (CB1101, efflux-deleted). The experiment in a line: microbe, parasite or virus in culture. The class given is cell-based. The note with it: Pseudomonas aeruginosa, read-out: P. aeruginosa MB5890 efflux-del (MIC), MHII broth; * = some reduction of growth versus control at […].
Test [3] deals with Staphylococcus aureus MB6266 (MRSA COL). The test can be described thus: Nargenicin antibacterial assay (MIC), S. aureus. The class given is cell-based. Particulars: Staphylococcus aureus, MRSA, read-out: S. aureus COL (MIC), MHII broth + 50% human serum; * = some reduction of growth versus control at […].
For test [4], the target named is T1, S. aureus DnaE (DNA polymerase III α-subunit homolog from Staphylococcus aureus) (Staphylococcus aureus, UniProt Q5HF71).
T1 construct: SaDnaE (S. aureus DnaE residues 1-1065); 6xHis (N); made in house; host or cells: E. coli BL21-AI
T1 sequence (Q5HF71 1-1065): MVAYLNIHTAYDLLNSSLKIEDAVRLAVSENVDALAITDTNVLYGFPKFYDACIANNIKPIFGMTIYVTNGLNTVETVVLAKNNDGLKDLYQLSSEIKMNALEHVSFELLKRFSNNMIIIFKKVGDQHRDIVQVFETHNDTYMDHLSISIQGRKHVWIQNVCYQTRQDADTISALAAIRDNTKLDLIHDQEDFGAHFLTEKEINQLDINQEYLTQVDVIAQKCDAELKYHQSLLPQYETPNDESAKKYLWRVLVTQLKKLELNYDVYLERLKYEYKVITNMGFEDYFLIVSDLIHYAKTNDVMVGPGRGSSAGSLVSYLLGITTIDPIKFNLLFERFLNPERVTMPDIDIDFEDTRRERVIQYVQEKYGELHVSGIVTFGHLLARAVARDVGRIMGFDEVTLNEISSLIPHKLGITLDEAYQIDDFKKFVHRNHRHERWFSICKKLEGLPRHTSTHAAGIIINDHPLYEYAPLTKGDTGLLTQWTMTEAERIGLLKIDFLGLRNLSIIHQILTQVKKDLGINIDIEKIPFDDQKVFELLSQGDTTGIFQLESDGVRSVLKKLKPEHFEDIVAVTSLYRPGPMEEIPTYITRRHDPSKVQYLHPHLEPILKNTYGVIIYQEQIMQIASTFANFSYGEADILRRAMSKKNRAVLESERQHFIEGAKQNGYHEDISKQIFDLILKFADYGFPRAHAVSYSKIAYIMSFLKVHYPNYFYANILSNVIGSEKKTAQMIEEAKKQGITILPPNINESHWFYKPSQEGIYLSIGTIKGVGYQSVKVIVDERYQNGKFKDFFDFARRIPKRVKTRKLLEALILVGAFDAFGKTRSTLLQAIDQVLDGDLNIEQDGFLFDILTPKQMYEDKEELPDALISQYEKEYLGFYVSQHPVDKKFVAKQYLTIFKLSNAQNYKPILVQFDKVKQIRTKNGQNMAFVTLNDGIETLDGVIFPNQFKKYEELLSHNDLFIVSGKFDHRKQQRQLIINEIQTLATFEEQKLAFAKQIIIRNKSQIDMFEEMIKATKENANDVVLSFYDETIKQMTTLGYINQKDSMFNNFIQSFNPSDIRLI
The experiment in a line: biochemical. The test is classed as biochemical. In a few lines: (§1)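 3H-dTTP (0.011 mM) incorporation into DNase I-activated calf thymus DNA, alongside the other three dNTPs at 0.025 mM, measured by filter counting after TCA precipitation. Reactions ran 30 min at 30° C., started with purified N-His DnaE: 0.8 μg/ml for E. coli, 0.05 μg/ml for S. aureus.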

Test [5] concerns the target T2, E. coli DnaE (DNA polymerase III α-subunit from Escherichia coli) (Escherichia coli, UniProt P10443).
T2 construct: EcDnaE (E. coli DnaE residues 1-1160); 6xHis (N); made in house; host or cells: E. coli BL21(DE3)
The test can be described thus: In vitro DnaE single enzyme assay (E. coli). The class given is biochemical. An outline of the steps: as §1

Test [6] has as its system Streptococcus pneumoniae MB6357 (CL 2883). The test can be described thus: Nargenicin antibacterial assay (MIC), S. pneumoniae. The class given is cell-based. Particulars: Streptococcus pneumoniae, read-out: S. pneumoniae MB2883 (MIC), Isosensitest broth; * = some reduction of growth versus control at […].
The mark [7] stands for this setting: read-out: E. coli DnaE IC50 (converted).

T2 sequence (P10443 whole entry, the tested form may be a part): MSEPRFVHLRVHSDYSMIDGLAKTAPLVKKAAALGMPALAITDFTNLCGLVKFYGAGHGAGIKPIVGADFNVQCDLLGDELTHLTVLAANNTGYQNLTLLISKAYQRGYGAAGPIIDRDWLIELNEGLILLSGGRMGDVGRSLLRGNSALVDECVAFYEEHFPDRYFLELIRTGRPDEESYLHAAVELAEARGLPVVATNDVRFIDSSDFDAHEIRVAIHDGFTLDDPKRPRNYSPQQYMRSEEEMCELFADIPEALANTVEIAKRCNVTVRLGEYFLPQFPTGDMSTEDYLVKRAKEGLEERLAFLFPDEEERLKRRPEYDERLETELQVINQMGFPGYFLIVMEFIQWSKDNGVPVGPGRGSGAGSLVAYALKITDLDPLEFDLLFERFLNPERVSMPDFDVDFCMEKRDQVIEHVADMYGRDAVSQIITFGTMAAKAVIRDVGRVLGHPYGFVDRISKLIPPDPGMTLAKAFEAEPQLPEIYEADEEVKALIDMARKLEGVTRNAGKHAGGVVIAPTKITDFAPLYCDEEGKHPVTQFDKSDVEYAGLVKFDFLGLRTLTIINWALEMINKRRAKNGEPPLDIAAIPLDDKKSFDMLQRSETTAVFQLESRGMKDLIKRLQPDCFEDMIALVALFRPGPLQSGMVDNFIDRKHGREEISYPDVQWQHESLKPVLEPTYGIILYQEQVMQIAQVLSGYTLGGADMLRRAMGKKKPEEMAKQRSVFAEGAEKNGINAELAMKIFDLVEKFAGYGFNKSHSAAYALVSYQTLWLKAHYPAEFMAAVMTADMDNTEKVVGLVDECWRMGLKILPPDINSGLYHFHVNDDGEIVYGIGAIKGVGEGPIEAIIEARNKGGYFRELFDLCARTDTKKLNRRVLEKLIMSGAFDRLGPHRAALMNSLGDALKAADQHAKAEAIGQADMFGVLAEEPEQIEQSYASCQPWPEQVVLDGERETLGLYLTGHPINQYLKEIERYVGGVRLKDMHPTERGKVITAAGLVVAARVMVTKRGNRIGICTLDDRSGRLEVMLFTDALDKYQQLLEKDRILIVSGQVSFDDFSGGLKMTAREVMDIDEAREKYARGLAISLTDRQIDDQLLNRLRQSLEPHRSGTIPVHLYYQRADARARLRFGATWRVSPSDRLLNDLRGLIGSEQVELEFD

In general, IC50 refers to the concentration that gives 50% inhibition. Regarding `CO[C@H]1C[C@H]2C=C[C@H]3[C@H]4O[C@]2(/C(C)=C/[C@@H](C)[C@H](C)OC1=O)[C@@H]3[C@H](O)[C@@H](C)[C@H]4OC(=O)c1ccc[nH]1` [Example 48, (3R,4S,7S,8aS,10aR,11R,12R,13R,14R,14aS,14bS,E)-14-hydroxy-7-methoxy-1,3,4,13-tetramethyl-6-oxo-3,4,6,7,8,8a,10a,11,12,13,14,14a-dodecahydro-11,14b-epoxynaphtho[2,1-e]oxecin-12-yl 1H-pyrrole-2-carboxylate], the MIC in test [1] is 64 µg/mL (≈ 132 µM); in test [2], over 128 µg/mL; in test [3], over 128 µg/mL; in test [6] it was 128 µg/mL (≈ 264 µM). Moreover, the IC50 in test [4] (S. aureus DnaE IC50) was 0.165 µM; in test [5] (E. coli DnaE IC50), over 206 µM.
For `CO[C@H]1C[C@H]2C=C[C@H]3[C@H]4O[C@]2(/C(C)=C/[C@@H](C)[C@@H]([C@@H](C)O)OC1=O)[C@@H]3[C@H](O)[C@@H](C)[C@H]4OC(=O)c1[nH]c(Br)c(Br)c1Br` [Example 41, (3R,4S,7S,8aS,10aR,11R,12R,13R,14R,14aS,14bS,E)-14-hydroxy-4-((R)-1-hydroxyethyl)-7-methoxy-1,3,13-trimethyl-6-oxo-3,4,6,7,8,8a,10a,11,12,13,14,14a-dodecahydro-11,14b-epoxynaphtho[2,1-e]oxecin-12-yl3,4,5-tribromo-1H-pyrrole-2-carboxylate], the MIC was over 128 µg/mL in test [1], over 128 µg/mL in test [2], over 128 µg/mL in test [3] and 8 µg/mL (≈ 10.6 µM) in test [6]. The half-maximal inhibitory concentration (IC50) was 4.12 µM in test [4] (S. aureus DnaE IC50) and 79.8 µM in test [5] (E. coli DnaE IC50).
For `CO[C@H]1C[C@H]2C=C[C@H]3[C@H]4O[C@]2(/C(C)=C/[C@@H](C)[C@@H]([C@@H](C)OC(=O)NNC(N)=O)OC1=O)[C@@H]3[C@H](O)[C@@H](C)[C@H]4OC(=O)c1ccc[nH]1` [Example 23], the MIC is 4 µg/mL (≈ 6.49 µM) in test [1], 64 µg/mL (≈ 104 µM) in test [2], 8 µg/mL in test [3] and over 128 µg/mL in test [6]. Also, the figures for the half-maximal inhibitory concentration (IC50) in test [4] (S. aureus DnaE IC50) and in test [5] (setting [7]) were under 0.00973 µM and 48.6 µM, respectively.
On to `CO[C@H]1C[C@H]2C=C[C@H]3[C@H]4O[C@]2(/C(C)=C/[C@@H](C)[C@@H]([C@@H](C)OC(=O)NCCc2ccccc2)OC1=O)[C@@H]3[C@H](O)[C@@H](C)[C@H]4OC(=O)c1ccc[nH]1` [Example 8], for which the MIC in test [1], in test [2], in test [3] and in test [6] was over 128 µg/mL each time. The IC50 in test [4] (S. aureus DnaE IC50) is 0.0679 µM; in test [5] (setting [7]), 45.3 µM.
With `COC(=O)O[C@H](C)[C@H]1OC(=O)[C@@H](OC)CC2C=C[C@H]3[C@H]4O[C@]2(/C(C)=C/[C@H]1C)[C@@H]3[C@H](O)[C@@H](C)[C@H]4OC(=O)c1ccc[nH]1` (stereo partly drawn) [Example 27], the MIC was 4 µg/mL (≈ 6.97 µM) in test [1], over 128 µg/mL in test [2], 2 µg/mL in test [3] and 64 µg/mL (≈ 112 µM) in test [6]. Also, the IC50 was under 0.0105 µM in test [4] (S. aureus DnaE IC50) and 61 µM in test [5] (setting [7]).
For `CO[C@H]1CC2C=C[C@H]3[C@H]4O[C@]2(/C(C)=C/[C@@H](C)[C@@H](C(C)O)OC1=O)[C@@H]3[C@H](O)[C@@H](C)[C@H]4OC(=O)c1[nH]c(-c2ccsc2)c(-c2ccsc2)c1-c1ccsc1` (stereo partly drawn) [Example 201], the MIC was over 128 µg/mL in test [1], over 128 µg/mL in test [2], over 128 µg/mL in test [3] and 128 µg/mL (≈ 168 µM) in test [6]. Also, the figures for the IC50 in test [4] (S. aureus DnaE IC50) and in test [5] (setting [7]) were 0.394 µM and 0.525 µM, respectively.
`CO[C@H]1C[C@H]2C=C[C@H]3[C@H]4O[C@]2(/C(C)=C/[C@@H](C)[C@@H]([C@@H](C)O)OC1=O)[C@@H]3[C@H](OC(N)=O)[C@@H](C)[C@H]4O` [Example 187]: the MIC in test [1] was 16 µg/mL (≈ 34.4 µM); in test [2], 32 µg/mL (≈ 68.7 µM); in test [3], over 128 µg/mL; in test [6], over 128 µg/mL. Besides, the results for the IC50 in test [4] (S. aureus DnaE IC50) and in test [5] (setting [7]) were 0.387 µM and over 215 µM, respectively.
Take `CO[C@H]1C[C@H]2C=C[C@H]3[C@H]4O[C@]2(/C(C)=C/[C@@H](C)[C@@H]([C@@H](C)O)OC1=O)[C@@H]3[C@H](O)[C@@H](C)[C@H]4OC(N)=O` [Example 197]: the MIC is 2 µg/mL (≈ 4.3 µM) in test [1], 2 µg/mL (≈ 4.3 µM) in test [2], 128 µg/mL in test [3] and over 128 µg/mL in test [6]. Also, the results for the IC50 in test [4] (S. aureus DnaE IC50) and in test [5] (setting [7]) were 0.0236 µM and 81.6 µM, respectively.
Take `CO[C@H]1C[C@H]2C=C[C@H]3[C@H]4O[C@]2(/C(C)=C/[C@@H](C)[C@@H]([C@@H](C)OC(=O)NC(C)C)OC1=O)[C@@H]3[C@H](O)[C@@H](C)[C@H]4OC(=O)c1ccc[nH]1` [Example 9]: the MIC in test [1] was 8 µg/mL (≈ 13.3 µM); in test [2] it was over 128 µg/mL; in test [3] it was 8 µg/mL; in test [6] it was 32 µg/mL (≈ 53.3 µM). The IC50 in test [4] (S. aureus DnaE IC50) is 0.0333 µM; in test [5] (setting [7]), 49.9 µM.
With `CO[C@H]1C[C@H]2C=C[C@H]3[C@H]4O[C@]2(/C(C)=C/[C@@H](C)[C@@H]([C@@H](C)OC(=O)N2CCOCC2)OC1=O)[C@@H]3[C@H](O)[C@@H](C)[C@H]4OC(=O)c1ccc[nH]1` [Example 20], the MIC in test [1] is 8 µg/mL (≈ 12.7 µM); in test [2], over 128 µg/mL; in test [3] it was 8 µg/mL; in test [6], 32 µg/mL (≈ 50.9 µM). The figures for the IC50 in test [4] (S. aureus DnaE IC50) and in test [5] (setting [7]) were under 0.00954 µM and over 159 µM, respectively.
`COC1CC2C=CC3C4OC2(C(C)=CC(C)C(C(C)OC(=O)NCCN2CCN(C)CC2)OC1=O)C3C(O)C(C)C4OC(=O)c1ccc[nH]1` (stereo not drawn) [Example 24]: the MIC in test [1] is 32 µg/mL (≈ 46.7 µM); in test [2] it was over 128 µg/mL; in test [3], 32 µg/mL; in test [6], over 128 µg/mL. The values for the IC50 in test [4] (read-out: S. aureus DnaE IC50 (converted)) and in test [5] (E. coli DnaE IC50) were 0.00876 µM and over 146 µM, respectively.
Regarding `CO[C@H]1C[C@H]2C=C[C@@H]3[C@H]4[C@H](O)[C@@H](C)C(=O)[C@@H]3O[C@]42/C(C)=C/[C@@H](C)[C@@H]([C@@H](C)O)OC1=O` [Example 202], the MIC is 128 µg/mL (≈ 304 µM) in test [1], over 128 µg/mL in test [2], over 128 µg/mL in test [3] and over 128 µg/mL in test [6]. Moreover, the IC50 was 78.5 µM in test [4] (S. aureus DnaE IC50) and over 238 µM in test [5] (setting [7]).
Turning to `CO[C@H]1C[C@H]2C=CC3C4[C@H](O)[C@@H](C)[C@@H](OC(=O)c5ccc[nH]5)[C@@H]3O[C@]42/C(C)=C/[C@@H](C)[C@@H]([C@@H](C)OC(=O)C(=O)NCc2ccccc2)OC1=O` [Example 114, (3R,4S,7S,8aS,11R,12R,13R,14R,14bS,E)-4-((R)-1-(2-(benzylamino)-2-oxoacetoxy)ethyl)-14-hydroxy-7-methoxy-1,3,13-trimethyl-6-oxo-3,4,6,7,8,8a,10a,11,12,13,14,14a-dodecahydro-11,14b-epoxynaphtho[2,1-e]oxecin-12-yl 1H-pyrrole-2-carboxylate], the MIC in test [1] was 0.25 µg/mL (≈ 0.369 µM); in test [2], 8 µg/mL (≈ 11.8 µM); in test [3], under 0.125 µg/mL; in test [6] it was over 128 µg/mL. For the same compound, the IC50 in test [4] (S. aureus DnaE IC50) was under 0.00887 µM; in test [5] (E. coli DnaE IC50), 16.3 µM.
